Data as given in patent publication US10106501B2, “Nuclear receptor modulators” (AbbVie Inc., priority 2015, dated 2018).

Biological target: T1, chimeric human RORγ-Gal4 receptor (Homo sapiens, UniProt P51449)
T1 sequence (P51449 269-508 limits assumed): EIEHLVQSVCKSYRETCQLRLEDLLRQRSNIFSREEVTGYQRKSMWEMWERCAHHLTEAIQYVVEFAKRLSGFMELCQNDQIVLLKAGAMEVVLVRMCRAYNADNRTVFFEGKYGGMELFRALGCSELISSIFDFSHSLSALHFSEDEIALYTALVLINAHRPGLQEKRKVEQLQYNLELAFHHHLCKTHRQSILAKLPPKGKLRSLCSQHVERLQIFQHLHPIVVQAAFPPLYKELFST
Experiment: transient transactivation assay (RORγ-Gal4 luciferase reporter)
Format: cell-based
Settings: Cos-7 cells transfected with RORγ-Gal4 and 5Gal4 pGL3 TK Luc reporter; overnight incubation; T0901317 at 10^-5 M as reference; read-out: IC50

| SMILES | IC50 [nM] |
| --- | --- |
| Cc1cn(Cc2c(Cl)ccc(C(=O)N3CCOCC3)c2Cl)c2c(C)nc(C(F)(F)F)cc12 [ET, (2,4-dichloro-3-((3,7-dimethyl-5-(trifluoromethyl)-1H-pyrrolo[2,3-c]pyridin-1-yl)methyl)phenyl)(morpholino)methanone] | < 100 |
| Cc1cc(OC(F)(F)F)cc2c1cc(Cc1c(Cl)ccc(C(=O)N3CCC(CC(=O)O)CC3)c1Cl)n2C [DP, 2-(1-(2,4-dichloro-3-((1,4-dimethyl-6-(trifluoromethoxy)-1H-indol-2-yl)methyl)benzoyl)piperidin-4-yl)acetic acid] | < 100 |
| Cc1cc(C#N)cc2c1cc(Cc1c(Cl)ccc(O[C@H]3CC[C@H](C(=O)O)CC3)c1Cl)n2C [Example AF, trans-4-(2,4-dichloro-3-((6-cyano-1,4-dimethyl-1H-indol-2-yl)methyl)phenoxy)cyclohexanecarboxylic acid] | 100 to 500 |
| Cc1cn(C(=O)c2c(Cl)ccc(C(=O)N3CCC(CC(=O)O)CC3)c2Cl)c2c(C)cc(OC(F)(F)F)cc12 [EH, 2-[1-[2,4-dichloro-3-[3,7-dimethyl-5-(trifluoromethoxy)indole-1-carbonyl]benzoyl]-4-piperidyl]acetic acid] | < 100 |
| Cc1cc(C(F)(F)F)cc2c1nc(Cc1c(Cl)ccc(CN3CCCC(O)C3)c1Cl)n2C (centres unmarked) [BW-5] | 100 to 500 |
| Cc1cc(C(F)(F)F)cc2c1nc(Cc1c(Cl)ccc(CN3CCC(C(C)(C)CO)CC3)c1Cl)n2C [BW-6] | 100 to 500 |
| Cc1cn(C(=O)c2c(Cl)ccc(C(=O)N3CCC(C(=O)O)CC3)c2Cl)c2c(C)cc(OC(F)(F)F)cc12 [EH-1] | 100 to 500 |
| Cc1cc(OC(F)F)cc2ccn(Cc3c(Cl)ccc(C(=O)N4CCC(CC(=O)O)CC4)c3Cl)c12 [EM, 2-(1-(2,4-dichloro-3-((5-(difluoromethoxy)-7-methyl-1H-indol-1-yl)methyl)benzoyl)piperidin-4-yl)acetic acid] | < 100 |
| Cc1nn(Cc2c(Cl)ccc(C(=O)N3CCC(CC(=O)O)CC3)c2Cl)c2ccc(C(F)(F)F)cc12 [EF, 2-(1-(2,4-dichloro-3-((3-methyl-5-(trifluoromethyl)-1H-indazol-1-yl)methyl)benzoyl)piperidin-4-yl)acetic acid] | < 100 |
| CNC(=O)[C@@H]1CCCN1C(=O)c1ccc(Cl)c(Cc2cc3c(C)cc(C#N)cc3n2C)c1Cl [AA-32] | 100 to 500 |
| COCCN1CCN(C(=O)c2ccc(Cl)c(Cc3cc4c(C)cc(C(F)(F)F)cc4n3C)c2Cl)CC1 [A, (2,4-dichloro-3-((1,4-dimethyl-6-(trifluoromethyl)-1H-indol-2-yl)methyl)phenyl)(4-(2-methoxyethyl)piperazin-1-yl)methanone] | < 100 |
| Cc1cc(C#N)cc2c1cc(Cc1c(Cl)cnc(C(=O)N3CCC(O)CC3)c1Cl)n2C [BF-2] | 100 to 500 |
| Cc1cc(C(F)(F)F)cc2c1nc(Cc1c(Cl)ccc(C(=O)N3CCC(CC(C)(C)O)CC3)c1Cl)n2C [BJ-14] | 100 to 500 |
| Cc1cn(Cc2c(Cl)ccc(C(=O)N3CC[C@@H](C(=O)O)[C@@H](C)C3)c2Cl)c2c(C)cc(C(F)(F)F)cc12 [DH1-2] | < 100 |
| Cc1cc(C(F)(F)F)nn2c(C)c(C(=O)c3c(Cl)ccc(C(=O)N4CCC(CC(=O)O)CC4)c3Cl)nc12 [CZ-1A, 2-(1-(2,4-dichloro-3-(3,8-dimethyl-6-(trifluoromethyl)imidazo[1,2-b]pyridazine-2-carbonyl)benzoyl)piperidin-4-yl)acetic acid] | 100 to 500 |
| Cc1cc(C#N)nc2c1cc(Cc1c(Cl)ccc(C(=O)N3CCC(O)CC3)c1Cl)n2C [CL-1] | < 100 |
| Cc1cc(C(F)(F)F)cc2ccn(C(=O)c3c(Cl)ccc(C(=O)N4CCC(CC(=O)O)CC4)c3Cl)c12 [ES, 2-(1-(2,4-dichloro-3-(7-methyl-5-(trifluoromethyl)-1H-indole-1-carbonyl)benzoyl)piperidin-4-yl)acetic acid] | < 100 |
| Cc1cc(C#N)nc2c1nc(Cc1c(Cl)ccc(C(=O)N3CCOCC3)c1Cl)n2C [CI, 2-(2,6-dichloro-3-(morpholine-4-carbonyl)benzyl)-3,7-dimethyl-3H-imidazo[4,5-b]pyridine-5-carbonitrile] | 1000 to 10000 |
| Cc1cc(OC(F)(F)F)cc2c1c(Cc1c(Cl)ccc(C(=O)N3CCC(C(=O)O)C(C)C3)c1Cl)cn2C (centres unmarked) [DU1-2] | < 100 |

Results, then the compound that gave them:

| IC50 [nM] | SMILES |
| --- | --- |
| < 100 | Cc1cc(C(F)(F)F)cc2c1cc(Cc1c(Cl)ccc(C(=O)N3CC[C@H](C(=O)O)[C@@H](C)C3)c1Cl)n2C [Example B-26] |
| < 100 | Cc1cc(C(F)(F)F)cc2c1c(Cc1c(Cl)ccc(C(=O)N3CC[C@@H](C(=O)O)[C@@H](C)C3)c1Cl)cn2C [Example F1-3] |
| < 100 | COCCC1CCN(C(=O)c2ccc(Cl)c(Cc3cc4c(C)cc(C(F)(F)F)nc4n3C)c2Cl)CC1 [Example FT, (2,4-dichloro-3-((1,4-dimethyl-6-(trifluoromethyl)-1H-pyrrolo[2,3-b]pyridin-2-yl)methyl)phenyl)(4-(2-methoxyethyl)piperidin-1-yl)methanone] |
| < 100 | CC(=O)n1c(Cc2c(Cl)ccc(C(=O)N3CCOCC3)c2Cl)cc2c(C)cc(C(F)(F)F)cc21 [Example D-2] |
| < 100 | Cn1c(Cc2c(Cl)ccc(C(=O)N3CCC(CC(=O)O)CC3)c2Cl)cc2c(Cl)cc(C#N)cc21 [Example R, 2-(1-(2,4-dichloro-3-((4-chloro-6-cyano-1-methyl-1H-indol-2-yl)methyl)benzoyl)piperidin-4-yl)acetic acid] |
| 100 to 500 | Cc1cc(C(F)(F)F)cc2c1cc(Cc1c(Cl)ccc(C(=O)N3CCC(C(=O)O)C3)c1Cl)n2C (centres unmarked) [Example B-3] |
| 100 to 500 | Cn1c(Cc2c(Cl)ccc(C(=O)N3CCC(C(=O)O)CC3)c2Cl)cc2ccc(C(F)(F)F)cc21 [M, 1-(2,4-dichloro-3-((1-methyl-6-(trifluoromethyl)-1H-indol-2-yl)methyl)benzoyl)piperidine-4-carboxylic acid] |
| < 100 | Cc1cc(C(F)(F)F)cc2c1c(Cc1c(Cl)ccc(C(=O)N3CCC(CC(=O)O)CC3)c1Cl)cn2C [F, 2-(1-(2,4-dichloro-3-((1,4-dimethyl-6-(trifluoromethyl)-1H-indol-3-yl)methyl)benzoyl)piperidin-4-yl)acetic acid] |
| < 100 | Cc1cc(C(F)(F)F)nc2c1cc(Cc1c(Cl)ncc(C(=O)N3CCOCC3)c1Cl)n2C [Example GF, (4,6-dichloro-5-((1,4-dimethyl-6-(trifluoromethyl)-1H-pyrrolo[2,3-b]pyridin-2-yl)methyl)pyridin-3-yl)(morpholino)methanone] |
| 500 to 1000 | Cc1cc(C#N)cc2c1cc(Cc1c(Cl)cnc(C(=O)N3CCC(CC(=O)O)CC3)c1Cl)n2C [Example BG, 2-[1-[3,5-dichloro-4-[(6-cyano-1,4-dimethyl-indol-2-yl)methyl]pyridine-2-carbonyl]-4-piperidyl]acetic acid] |
| < 100 | Cc1cc(C(F)(F)F)nc2c1cc(C(=O)c1c(Cl)ccc(C(=O)N3CCC(S(C)(=O)=O)CC3)c1Cl)n2C [Example GB, (2,4-dichloro-3-(1,4-dimethyl-6-(trifluoromethyl)-1H-pyrrolo[2,3-b]pyridine-2-carbonyl)phenyl)(4-(methylsulfonyl)piperidin-1-yl)methanone] |
| 500 to 1000 | Cn1c(Cc2c(Cl)ccc(C(=O)N3CC[C@@H](F)[C@H](O)C3)c2Cl)cc2ccc(C(F)(F)F)cc21 [Example L-5] |
| < 100 | Cc1cc(C(F)(F)F)cc2c1cc(Cc1c(Cl)ccc(C(=O)N3CCC(C(=O)O)C(F)(F)C3)c1Cl)n2C (centres unmarked) [Example AZ, 1-(2,4-dichloro-3-((1,4-dimethyl-6-(trifluoromethyl)-1H-indol-2-yl)methyl)benzoyl)-3,3-difluoropiperidine-4-carboxylic acid] |
